SMILES strings stand for the structures. Like-named read-outs stand apart in the source and are kept apart here. A value given as a limit tells only on which side of the number the result lay.

For this assay, the system named is S. Typhimurium ATCC14028. Kind of assay: Static peg assay for prevention of biofilm formation (Calgary device, crystal violet). Type of assay: cell-based, Salmonella Typhimurium. As to conditions: 25° C. As to the method: (§1) Evaluation of the biofilm inhibitory activity of some substituted 2-amino-1H-imidazoles of the invention was carried out by growing up biofilms of S. Typhimurium ATCC14028 or SL1344 or Pseudomonas aeruginosa PA14 in the presence of different concentrations (1/2 dilution series) of biofilm inhibitors, by using the Calgary biofilm device. After an incubation period of 24 hours at 25° C. or 37° C. or 48 hours at 16° C. the biofilms were visualized by crystal violet staining. In the next step the stain was extracted from the biofilm with 30% acetic acid. The absorbance of the resolubilized stain at 570 nm is a measure of the amount of biofilm formed.
In examples 2 and 3, the following materials and methods were used.
The device used for biofilm formation is a platform carrying 96 polystyrene pegs (Nunc no. 445497) that fits as a microtiter plate lid with a peg hanging into each microtiter plate well (Nunc no. 269789). Biofilm formation assays were carried out at 16° C., 25° C. and 37° C.
For biofilm assays at 16° C. and 25° C., two-fold serial dilutions of the compounds in 100 μl liquid TSB 1/20 broth per well were prepared in the microtiter plate. Subsequently, an overnight culture of S. Typhimurium ATCC14028 or SL1344 (grown up in LB medium) was diluted 1:100 into TSB 1/20 broth and 100 μl (ca. 10^6 cells) was added to each well of the microtiter plates, resulting in a total amount of 200 μl medium per well. The pegged lid was placed on the microtiter plate and the plate was incubated for 48 hours at 16° C. or for 24 hours at 25° C. without shaking. During this incubation period biofilms were formed on the surface of the pegs. In case of the assay at 16° C., after 24 hours the lid was transferred into a new plate with medium and the specific molecules used for testing. […] For quantification of biofilm formation, the pegs were washed once in 200 μl phosphate buffered saline (PBS). The remaining attached bacteria were stained for 30 minutes with 200 μl 0.1% (w/v) crystal violet in an isopropanol/methanol/PBS solution (v/v 1:1:18). Excess stain was rinsed off by placing the pegs in a 96-well plate filled with 200 μl distilled water per well. After the pegs were air dried (30 min), the dye bound to the adherent cells was extracted with 30% glacial acetic acid (200 μl). The OD570 of each well was measured using the VERSAmax microtiter plate reader. The IC50 value for each compound was determined from concentration gradients in two or three independent experiments (with 2 or 3 repeats per experiment), by using the GraphPad software of Prism.
For biofilm assays at 37° C., two-fold serial dilutions of the compounds in 50 μl liquid CFA broth per well were prepared in the microtiter plate. Subsequently, an overnight culture of S. Typhimurium ATCC 14028 was diluted 1:100 into CFA broth and 100 μl (ca. 10^6 cells) was added to each well of the microtiter plates, resulting in a total amount of 150 μl medium per well. The pegged lid was placed on the microtiter plate and the plate was incubated for 24 hours at 37° C. without shaking. During incubation the plates were placed in a humidity controlled container to prevent evaporation of the growth medium. Quantification of biofilm formation was performed similarly as described above for the assays at 16° C. and 25° C.
as §1, with “imidazo[1,2-a]pyrimidinium bromide salts” for “2-amino-1H-imidazoles”

The mark [1] stands for this setting: strain not given, read-out: IC(50), preventive activity against S. typhimurium biofilms.

`COc1ccc(CN2c3nccc[n+]3CC2(O)c2ccc([N+](=O)[O-])cc2)cc1` (stereo not shown) [R1=p-MeOBn, R3=4-NO2-Ph, R4=H, 1-(4-methoxybenzyl)-2-hydroxy-2-(4-nitrophenyl)-2,3-dihydro-1H-imidazo[1,2-a]pyrimidin-4-ium bromide]: the IC50 was found to be 220 µM (Salmonella enterica, Table 11, read-out: IC50 (biofilm formation)) and 220 µM (Salmonella enterica, Table 14, read-out: IC50 biofilm inhibition).

Take `Clc1ccc(-c2cnc(NCCn3cc(C4CCCCC4)nn3)[nH]2)cc1Cl` [R3=3,4-diClPh; R4=H; R9=c-hexyl; n=2]: the IC50 under setting [1] was determined as 55.2 µM.

Turning to `Clc1ccc(-c2cnc(NCCCn3cc(C4CCCCC4)nn3)[nH]2)cc1Cl` [R3=3,4-diClPh; R4=H; R9=c-hexyl; n=3], the IC50 under setting [1] worked out at 26.8 µM.

Turning to `CC(C)(C)c1ccc(-c2cn(CCCNc3ncc(-c4ccc(Cl)c(Cl)c4)[nH]3)nn2)cc1` [R3=3,4-diClPh; R4=H; R9=p(t-Bu)Ph; n=3], under setting [1], the IC50 was 17.8 µM.

With `COc1ccc(-c2cn(CCNc3ncc(-c4ccc(Cl)c(Cl)c4)[nH]3)nn2)cc1` [R3=3,4-diClPh; R4=H; R9=p-MeOPh; n=2], the IC50 under setting [1] is > 800 µM.

Consider `CCCc1cn(CCNc2ncc(-c3ccc(Cl)c(Cl)c3)[nH]2)nn1` [R3=3,4-diClPh; R4=H; R9=propyl; n=2], for which the IC50 under setting [1] was determined as 35.6 µM.

`CCCc1cn(CCCNc2ncc(-c3ccc(Cl)c(Cl)c3)[nH]2)nn1` [R3=3,4-diClPh; R4=H; R9=propyl; n=3]: the IC50 under setting [1] was determined as 31.8 µM.

As to `Clc1ccc(-c2cnc(NCCCn3cc(-c4ccsc4)nn3)[nH]2)cc1Cl` [R3=3,4-diClPh; R4=H; R9=thiofuran; n=3], the IC50 under setting [1] amounted to 2 µM.

As to `CC(C)(N)c1cn(CCCNc2ncc(-c3ccc(Br)cc3)[nH]2)nn1` [R3=4-BrPh; R4=H; R9=C(CH3)2(NH2); n=3], the IC50 under setting [1] worked out at 30.9 µM.

Take `Brc1ccc(-c2cnc(NCCn3cc(C4CCCCC4)nn3)[nH]2)cc1` [R3=4-BrPh; R4=H; R9=c-hexyl; n=2]: the IC50 under setting [1] was 8.4 µM.

Consider `Brc1ccc(-c2cnc(NCCn3cc(C4CC4)nn3)[nH]2)cc1` [R3=4-BrPh; R4=H; R9=c-propyl; n=2], for which, under setting [1], the IC50 was found to be 2.02 µM.

Consider `CCCCCCCc1cn(CCNc2ncc(-c3ccc(Br)cc3)[nH]2)nn1` [R3=4-BrPh; R4=H; R9=heptyl; n=2], for which the IC50 under setting [1] turned out to be 189 µM.

As to `Cc1ccc(-c2cn(CCNc3ncc(-c4ccc(Br)cc4)[nH]3)nn2)cc1` [R3=4-BrPh; R4=H; R9=p-MePh; n=2], under setting [1], the IC50 was > 800 µM.

As for `CCCCCc1ccc(-c2cn(CCCNc3ncc(-c4ccc(Br)cc4)[nH]3)nn2)cc1` [R3=4-BrPh; R4=H; R9=p-PenPh; n=3], the IC50 under setting [1] was > 800 µM.

In the case of `COc1ccc(-c2cn(CCNc3ncc(-c4ccc(Br)cc4)[nH]3)nn2)cc1` [R3=4-BrPh; R4=H; R9=pMeOPh; n=2], the IC50 under setting [1] came to 91.2 µM.

For `CCCc1cn(CCNc2ncc(-c3ccc(Br)cc3)[nH]2)nn1` [R3=4-BrPh; R4=H; R9=propyl; n=2], the IC50 under setting [1] is 25.3 µM.

As to `CCCc1cn(CCCNc2ncc(-c3ccc(Br)cc3)[nH]2)nn1` [R3=4-BrPh; R4=H; R9=propyl; n=3], the IC50 under setting [1] came to 35.3 µM.

For `Fc1ccc(-c2cnc(NCCn3cc(C4CCCC4)nn3)[nH]2)cc1` [R3=4-FPh; R4=H; R9=c-pentyl; n=2], the IC50 under setting [1] was 128 µM.

In the case of `Fc1ccc(-c2cnc(NCCn3cc(C4CC4)nn3)[nH]2)cc1` [R3=4-FPh; R4=H; R9=c-propyl; n=2], the IC50 under setting [1] turned out to be 93.3 µM.

Turning to `CC(C)(C)c1cn(CCNc2ncc(C(c3ccccc3)c3ccccc3)[nH]2)nn1` [R3=CHPh2; R4=H; R9=t-Butyl; n=2], under setting [1], the IC50 is 30.9 µM.

As for `c1ccc(-c2cn(CCNc3ncc(-c4ccccc4)[nH]3)nn2)cc1` [R3=Ph; R4=H; R9=Phenyl; n=2], under setting [1], the IC50 came to 36.5 µM.

`c1ccc(-c2cn(CCCNc3ncc(-c4ccccc4)[nH]3)nn2)cc1` [R3=Ph; R4=H; R9=phenyl; n=3]: the IC50 under setting [1] is 40 µM.

Regarding `CCCCCc1cn(CCNc2nc(-c3ccc(C)cc3)c(-c3ccc(Cl)cc3)[nH]2)nn1` [R3=p-ClPh; R4=p-MePh; R9=Pentyl; n=2], under setting [1], the IC50 came out at 371 µM.

Consider `Cc1ccc(-c2nc(NCCn3cc(C4CCCC4)nn3)[nH]c2-c2ccc(Cl)cc2)cc1` [R3=p-ClPh; R4=p-MePh; R9=c-Pentyl; n=2], for which the IC50 under setting [1] turned out to be 6.5 µM.

Source of the values: US20130029981A1, “COMPOUNDS, COMPOSITIONS, AND METHODS FOR CONTROLLING BIOFILMS” (Katholieke Universiteit Leuven, priority 2009, published 2013).
